Data on 3 compounds can be found in US8598119B2, “Methods and compositions for sleep disorders and other disorders” (priority 2008, dated 2013).

As usually defined, the Ki is the equilibrium dissociation constant of an inhibitor or competing ligand from its target. Read a high Ki as lower affinity.

“Also recorded” adds a separate entry of the source.

Series [1] has as its system socially-defeated mice. The settings on record: treated daily for 30 days; cited from earlier work.
The target of another series is Striatal D2 receptor (Homo sapiens (Human), UniProt P14416). As to the kind of experiment: Striatal D2 receptor occupancy by positron emission tomography in healthy volunteers. The series is classed as in vivo. As to conditions: PET.
In series [2] the test system is patients with sleep maintenance insomnia (SMI). Nature of the series: Clinical trial, overnight PSG in patients with sleep maintenance insomnia. It counts as in vivo, human. As to conditions: for SWS, Mean Change from Baseline / Total Sleep Time, Mean Change from Baseline / Total Time Awake, Mean Change from Baseline / WASO, Mean Change from Baseline: n = 18, PSG.
Series [3] has as its system unilateral 6-OHDA-lesioned mice. As to the kind of experiment: L-DOPA induced dyskinesia (AIMS) in unilateral 6-OHDA-lesioned mice. The series is classed as in vivo, mouse. The source says:
Day 1-Day 9: Treatment with L-DOPA/benserazide
Day 10: Treatment with L-DOPA/benserazide+Evaluation of AIMs (dyskinesia)
Experiment 1 (Chronic): Development of Dyskinesia
Day 1-Day 10: Treatment with L-DOPA/benserazide plus ITI-007 ITI-007PD.
Day 11: Treatment with L-DOPA/benserazide+Evaluation of AIMs (dyskinesia)
Experiment 2 (Acute): Expression of dyskinesia
Day 1-Day 10: Treatment with L-DOPA/benserazide
Day 11: Treatment with L-DOPA/benserazide plus ITI-007+Evaluation of AIMs (dyskinesia)
The compound effectively reduces (by ˜50%) the development of dyskinetic behaviors in PD mice (i.e., Chronic treatment group). It has a less robust but still significant effect (by ˜25% reduction) on established dyskinetic behaviors (i.e., Acute treatment group). […] In addition to reducing L-DOPA-Induced Dyskinesias, as described above, the Compounds of Formula I will also reduce PD psychosis and depression, improve poor night time sleep and reduce excessive daytime sleepiness.

In series [4] the target is SERT (rat forebrain synaptosomal membrane) (Rattus norvegicus (Rat), UniProt P31652). Nature of the series: Transporter SERT radioligand binding assay in rat forebrain, [3H]-N-Methyl-Citalopram. The settings on record: Table 2.
The test system of series [5] is socially-defeated mice. As to the kind of experiment: Social defeat (resident-intruder) mouse model for depression. The series is classed as in vivo.
The next series concerns the target human 5-HT2C receptors (Homo sapiens (Human), UniProt P28335, I156V/I160V). Nature of the series: biochemical.
The next series deals with H1 receptors (Homo sapiens (Human), UniProt P35367). As to the kind of experiment: biochemical.
Setting [6] is: 1, 5, 10 mg single doses, in words.

Sequence of Striatal D2 receptor (P14416 whole entry): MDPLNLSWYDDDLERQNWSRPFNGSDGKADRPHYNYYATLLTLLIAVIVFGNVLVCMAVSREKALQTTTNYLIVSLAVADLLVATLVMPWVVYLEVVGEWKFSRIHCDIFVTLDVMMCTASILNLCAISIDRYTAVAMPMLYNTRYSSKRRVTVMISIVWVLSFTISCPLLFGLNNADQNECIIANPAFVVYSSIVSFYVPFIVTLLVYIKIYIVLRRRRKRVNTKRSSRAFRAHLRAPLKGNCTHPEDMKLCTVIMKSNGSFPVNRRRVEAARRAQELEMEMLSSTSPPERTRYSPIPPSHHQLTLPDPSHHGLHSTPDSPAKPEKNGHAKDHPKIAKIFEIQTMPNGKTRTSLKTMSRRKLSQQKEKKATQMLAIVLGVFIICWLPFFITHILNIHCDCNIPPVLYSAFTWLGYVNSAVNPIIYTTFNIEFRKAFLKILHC
Sequence of H1 receptors (P35367 whole entry): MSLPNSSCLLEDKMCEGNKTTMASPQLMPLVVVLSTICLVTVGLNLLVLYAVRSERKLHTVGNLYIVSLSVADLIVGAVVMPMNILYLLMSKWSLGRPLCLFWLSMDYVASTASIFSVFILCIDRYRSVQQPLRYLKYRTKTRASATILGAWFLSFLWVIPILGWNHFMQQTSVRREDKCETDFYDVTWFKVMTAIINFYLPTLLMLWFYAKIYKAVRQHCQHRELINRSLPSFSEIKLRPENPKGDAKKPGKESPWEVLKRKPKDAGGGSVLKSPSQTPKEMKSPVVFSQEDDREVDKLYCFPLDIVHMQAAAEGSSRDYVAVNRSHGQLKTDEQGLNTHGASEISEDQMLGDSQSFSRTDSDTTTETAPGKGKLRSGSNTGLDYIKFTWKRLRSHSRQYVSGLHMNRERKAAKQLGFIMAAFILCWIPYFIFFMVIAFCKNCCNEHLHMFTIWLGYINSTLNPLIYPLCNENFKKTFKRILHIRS
Sequence of human 5-HT2C receptors (P28335 33-458 I156V/I160V): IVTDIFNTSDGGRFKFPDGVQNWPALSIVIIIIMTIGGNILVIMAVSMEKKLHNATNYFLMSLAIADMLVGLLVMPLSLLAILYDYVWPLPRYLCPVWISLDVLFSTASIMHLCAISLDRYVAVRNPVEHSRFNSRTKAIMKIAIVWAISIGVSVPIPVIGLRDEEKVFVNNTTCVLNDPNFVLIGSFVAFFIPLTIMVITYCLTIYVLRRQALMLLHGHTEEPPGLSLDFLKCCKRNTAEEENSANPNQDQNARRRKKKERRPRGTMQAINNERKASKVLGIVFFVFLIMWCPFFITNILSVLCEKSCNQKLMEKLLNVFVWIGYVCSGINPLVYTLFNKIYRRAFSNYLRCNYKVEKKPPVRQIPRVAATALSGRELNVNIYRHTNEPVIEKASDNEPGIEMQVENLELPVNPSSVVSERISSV
Sequence of SERT (rat forebrain synaptosomal membrane) (P31652 whole entry): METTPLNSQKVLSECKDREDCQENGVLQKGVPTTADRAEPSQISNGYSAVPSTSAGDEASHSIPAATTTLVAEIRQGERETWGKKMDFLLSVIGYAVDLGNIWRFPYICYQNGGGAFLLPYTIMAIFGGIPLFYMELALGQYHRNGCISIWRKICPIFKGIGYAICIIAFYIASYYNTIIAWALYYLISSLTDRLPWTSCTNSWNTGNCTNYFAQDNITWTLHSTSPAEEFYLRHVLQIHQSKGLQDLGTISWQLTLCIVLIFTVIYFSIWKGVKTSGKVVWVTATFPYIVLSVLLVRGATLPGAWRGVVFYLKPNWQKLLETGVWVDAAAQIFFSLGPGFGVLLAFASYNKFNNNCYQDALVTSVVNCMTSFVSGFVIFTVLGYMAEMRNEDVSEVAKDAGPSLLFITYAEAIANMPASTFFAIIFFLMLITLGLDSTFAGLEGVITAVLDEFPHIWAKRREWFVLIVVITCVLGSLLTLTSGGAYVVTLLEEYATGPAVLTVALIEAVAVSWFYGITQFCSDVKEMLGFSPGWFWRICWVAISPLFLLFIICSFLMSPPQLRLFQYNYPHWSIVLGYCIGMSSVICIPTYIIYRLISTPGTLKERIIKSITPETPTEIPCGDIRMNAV

Take `CNCCC(Oc1ccc(C(F)(F)F)cc1)c1ccccc1` (centres unmarked) [fluoxetine]: the “social interaction behavior of socially defeated mice after chronic anti-depressant” value in the series with socially-defeated mice [1] was “improved social interaction behavior”.

As to `CN1CCN2c3c(cccc31)[C@@H]1CN(CCCC(=O)c3ccc(F)cc3)CC[C@@H]12` [Compound A, 1-(4-Fluoro-phenyl)-4-((6bR,10aS)-3-methyl-2,3,6b,9,10,10a-hexahydro-1H,7H-pyrido[3′,4′,4,5]pyrrolo[1,2,3-de]quinoxalin-8-yl)-butan-1-one], the “% Striatal D2 Occupancy” value on Striatal D2 receptor (20 mg) is ~20%. On Striatal D2 receptor (30 mg), the “% Striatal D2 Occupancy” value is ~32%. For the same compound, in series [2] (1 mg single dose), the “SWS, Mean Change from Baseline” value is recorded as 0.47 min; the “Total Sleep Time, Mean Change from Baseline” value (from here on “Total Sleep Time, Mean Change”) was determined as 4.17 min; the “Total Time Awake, Mean Change from Baseline” value (from here on “Total Time Awake, Mean Change”) is -4.08 min; the “WASO, Mean Change from Baseline” value is -12.69 min. Besides, in series [2] (5 mg single dose), the “SWS, Mean Change from Baseline” value stood at 5.53 min; the “Total Sleep Time, Mean Change” value was 0.56 min; the “Total Time Awake, Mean Change” value was -1.42 min; the “WASO, Mean Change from Baseline” value is -14.31 min. Besides, in series [2] (10 mg single dose), the “SWS, Mean Change from Baseline” value was found to be 8.94 min; the “Total Sleep Time, Mean Change” value was determined as 27.61 min; the “Total Time Awake, Mean Change” value was -28.31 min; the “WASO, Mean Change from Baseline” value was -33.22 min. In series [2] (setting [6]), the “effect on slow wave sleep (SWS)” value is reported as “increases SWS; also recorded: dose-dependently increase slow wave sleep” and the “effect on wake time after sleep onset (WASO)” value is recorded as “dose-dependently decreases WASO; also recorded: dose-dependently decreases wake after sleep onset”. Further, in series [2] (PSG), the “duration of REM” value was “no change in duration of REM; also recorded: did not suppress REM sleep”, the “latency to REM” value is “no change on latency to REM” and the “latency to fall asleep” value is “does not impair latency to fall asleep”. Also, in series [2] (first and second quarter of the night), the “slow wave sleep by part of the night” value is recorded as “increases slow wave sleep during the first half of the night”. Moreover, in series [2] (human, in vivo), the “dose-related adverse events or changes in safety parameters” value is “no dose-related adverse events or changes in safety parameters”, the early-morning rebound insomnia result is “no early-morning rebound insomnia” and the serious adverse events result is on record as “no serious adverse events”. Moreover, in series [2] (in words), the total sleep time result was “increase total sleep time”. The “cognitive function the morning after PSG (DSST, WPAT, Leeds Psychomotor Test)” value in series [2] (next day) was “does not impair cognitive function; also recorded: do not impair next-day cognitive function”. In addition, the sleep architecture entry in series [2] (over the course of the night) was “preserves normal sleep architecture over the course of the night”. For the same compound, the safety and tolerability result in series [2] (patients with sleep maintenance insomnia) was “safe and well tolerated; also recorded: safe and well-tolerated”. The “stage 2 sleep by part of the night” value in series [2] (third and fourth quarter of the night) was “increases stage 2 sleep during the second half of the night”. In addition, the “reduction of development of dyskinetic behaviors (Chronic treatment group)” value in series [3] (0.3 mg/kg IP co-administered with levodopa 10 mg/kg IP, chronic) is ~50%. Moreover, the “reduction of established dyskinetic behaviors (Acute treatment group)” value in series [3] (0.3 mg/kg IP with levodopa 10 mg/kg IP, acute) is ~25%. Further, the inhibitory constant (Ki) in series [4] turned out to be 0.046 µM. The “time in the Interaction Zone, socially-defeated mice” value with socially-defeated mice [5] (1 mg/kg IP once daily for 29 d, tested day 30, versus socially-defeated mice receiving vehicle) is listed as “almost twice as much time in the Interaction Zone”. The “general health and weight gain, normal mice” value in the series on socially-defeated mice [5] (normal mice treated once daily for 30 d, 1 mg/kg IP) was “healthy and normal-appearing and gained weight normally”. For the same compound, the “time in the Interaction Zone, normal mice” value in the series on socially-defeated mice [5] (normal mice, 1 mg/kg IP once daily, versus vehicle) was “comparable time in the Interaction Zone as mice receiving the vehicle injection”. For the same compound, the affinity at human 5-HT2C receptors, expressed as Ki, was 0.173 µM. In addition, the inhibitory constant (Ki) at H1 receptors is > 0.1 µM.

Take `CN(C)CCCN1c2ccccc2CCc2ccccc21` [IMI, imipramine]: the “social interaction behavior of socially defeated mice after chronic anti-depressant” value in the series on socially-defeated mice [1] is “improved social interaction behavior”.
